Reference: US5508401A, “Substituted dibenzo[a,d]cycloheptene NMDA antagonists” (priority 1991, dated 1996)

Columns and labels:
NMDA [1] = experiment: Inhibition of NMDA-induced lethality in mice; format: in vivo, male Swiss-albino mice (CD-1 strain); conditions: for Efficacy Ratio (ED50/TD50): NMDA-induced lethality vs traction reflex deficit (ataxia); for Efficacy Ratio (ED50/TD50) / ED50 Inhibition of NMDA-Induced Lethality / Percent of animals which survived at the dose indicated: ip, mice; for ED50 Inhibition of NMDA-Induced Lethality: dose required to produce 50% survival rate, NMDA 195 mg/kg i.p. 30 min after compound; for Percent of animals which survived at the dose indicated: NMDA 195 mg/kg i.p.
Procedure: The mice were pretreated with the representative test compounds followed thirty minutes later with NMDA (195 mg/kg, i.p., the ED90 dose for generalized myoclonus). The mice were then observed for 30 minutes, noting the latency of onset of generalized myoclonus (uncontrollable hind leg scratching or limbs and/or torso muscle jerking with loss of […] reflex) and death. From the latter, the ED50 for survival is determined. In this standard experimental test procedure, the specific compounds tested and their activity, which representatively establish the activity for all the compounds herein, are presented in Table I as follows:
(§1) NMDA-Induced Lethality and Traction Reflex Deficit (Ataxia)
Of Lethality Reflex Deficit
*As measured in mice. Defined as the dose required to produce 50% surviva
#Percent of animals which survived at the dose indicated.

[2] = cited from earlier work
[3] = target: NMDA-associated ion channel; experiment: Displacement of [3H]-TCP from its binding site in rat frontal cortex homogenates; conditions: functional binding assay without added spermidine
From the text: Ability to Displace [^3 H]-TCP from the NMDA Ion Channel
*Functional binding assay without added spermidine.

NMDA-induced responses = conditions: cited from earlier work
[4] = Traction reflex deficit (ataxia) in mice; conditions: mouse, in vivo, ip, dose which produced the deficit in 50% of animals tested
From the text: In fact, the separation between a compound's NMDA-antagonist activity and ataxic activity (often expressed as an "efficacy ratio" of the ED50 's of these two activities) has been extensively used to evaluate its therapeutic usefulness versus its liabilities. In our studies, PCP is approximately equipotent in its abilities to antagonize NMDA-induced lethality in mice and cause ataxia as measured by the traction reflex deficit model, giving an efficacy ratio (ED50 /TD50) of approximately 1.4 (Table 1, infra).
as §1
^@ As measured in mice. Defined as the dose which produced the defici
in 50% of animals tested.

NMDA [5] = conditions: in words; cited from earlier work
cerebral ischemia = conditions: in vivo; cited from earlier work
[6] = system: high-affinity PCP binding site in the NMDA-associated ion channel; conditions: cited from earlier work
[7] = in vivo; cited from earlier work

SMILES | Efficacy Ratio (ED50/TD50) (NMDA [1]) | ED50 Inhibition of NMDA-Induced Lethality (NMDA [1]) [mg/kg] | IC50 [3] [nM] | Percent of animals which survived at the dose indicated (NMDA [1]; 5 mg/kg) [%] | also measured
COc1ccc2c(c1)[C@]13CCCC[C@@H]1[C@H](C2)N(C)CC3 [Dextromethorphan] | 2.1 | 21 | 745 | – | Potency in antagonizing NMDA-induced lethality vs PCP and MK-801 (NMDA [1]; in words): not as potent as PCP and MK-801; Metabolism in man [2]: metabolized to dextrorphan in man; Antagonism of NMDA-induced responses (NMDA-induced responses): noncompetitively antagonizes NMDA-induced responses
CC12CNC(Cc3ccc(F)cc31)c1ccccc12 (stereo not shown) [Example 4, 10,11-Dihydro-3-fluoro-5-methyl-10,5-(iminomethano)-5H -dibenzo[a,d]cycloheptene] | – | – | – | 90 | –
CC12CNC(Cc3ccc(Cl)cc31)c1ccccc12 (stereo not shown) [Example 3, 10,11-Dihydro-3-chloro-5-methyl-10,5-(iminomethano)-5H-dibenzo[a,d]cycloheptene] | – | – | – | 90 | –
CC12CNC(Cc3ccc(Br)cc31)c1ccccc12 (stereo not shown) [Example 1, 10.11-Dihydro-3-bromo-5-methyl-10,5-(iminomethano)-5H -dibenzo[a,d]cycloheptene] | 3.2 | 4.6 | 192 | – | TD50 [4]: 14.7 mg/kg
c1ccc(C2(N3CCCCC3)CCCCC2)cc1 [PCP, phencyclidine] | – | 1.9 | 28.2 | – | Antagonism of NMDA-induced lethality (background statement) (NMDA [5]): antagonizes NMDA-induced lethality; Protection against cell death in cerebral ischemia models (cerebral ischemia): protects against cell death in cerebral ischemia models; Antagonism of NMDA-induced responses (NMDA-induced responses): noncompetitively antagonize NMDA-induced responses
CC12CNC(Cc3ccc(Br)cc31)c1ccccc12 (single isomer, unassigned; (-)) [Example 5, (-)-10,11-Dihydro-3-bromo-5-methyl-10,5-(iminomethano)-5H -dibenzo[a,d]cycloheptene] | – | – | 1010 | 40 | –
CC12CNC(Cc3ccccc31)c1ccc(Br)cc12 (stereo not shown) [Example 2, 10,11-Dihydro-7-bromo-5-methyl-10,5-(iminomethano)-5H-dibenzo[a,d]cycloheptene] | – | – | 110 | – | Percent of animals which survived at the dose indicated (NMDA [1]; 20 mg/kg): 60%
CC12CNC(Cc3ccc(Br)cc31)c1ccccc12 (single isomer, unassigned; (+)) [Example 6, (+)-10,11-Dihydro-3-bromo-5-methyl-10,5-(iminomethano)-5H -dibenzo[a,d]cycloheptene] | – | 2.2 | 89 | – | –
C[C@]12N[C@H](Cc3ccccc31)c1ccccc12 [MK-801] | 0.9 | 0.19 | 2.6 | – | Antagonism of NMDA-induced lethality (background statement) (NMDA [5]): antagonizes NMDA-induced lethality; Protection against cell death in cerebral ischemia models (cerebral ischemia): protects against cell death in cerebral ischemia models; Competition for the high-affinity PCP binding site [6]: competes for the high-affinity PCP binding site; Drug discrimination: generalization for PCP [7]: generalizes for PCP
CN1CC[C@@]23CCCC[C@@H]2[C@@H]1Cc1ccc(O)cc13 [Dextrorphan, dextrorphan] | – | 13 | – | – | –
